One assay concerns termite. Particulars: 125 ppm hexaflumuron in a matrix composed of spruce sawdust; cited from earlier work.
For assay [1], the system named is Formosan subterranean termite colony. The experiment in a line: Pair choice test, yellow pine versus bait matrix mixed with hexaflumuron. It is filed as in vivo, Coptotermes formosanus. Particulars: 50 ppm hexaflumuron in bait matrix; period of 10 weeks; colony of 1500. How it is done: To determine the acceptance by the Formosan subterranean termite of the bait matrix of Example 3 with toxic chemicals added, a pair choice test between a 25 g piece of yellow pine and an equivalent amount of bait matrix mixed with 50-ppm hexaflumuron was performed. Both pine and bait matrix were exposed to a Formosan termite colony composed of 1500 soldiers, workers, and nymphs, housed in a plastic Sterilite container containing 2L topsoil:sand (1:1) at 40% relative humidity. The treatment box was maintained under dark conditions at 26±3° C. A control, 12″ yellow pine wood stakes without hexaflumuron, was prepared and kept at the same conditions as the treatment.

In assay [2] the test system is termite workers and soldiers. The experiment in a line: Non-choice tests of antibiotics and a fungus inhibitor in bait matrix. It counts as in vivo. The following applies: 100 ppm in bait matrix; after three weeks of exposure. How it is done:
Non-choice tests using five different antibiotics (streptomycin sulfate, rifampicin, albendazole, neomycin sulfate, and antimycotic) and a fungus inhibitor (sorbic acid) were conducted at four different concentrations (100, 250, 500, and 1000 ppm). Individual chemicals were mixed with the bait matrix of Example 3 at each concentration and 10 g samples of each were transferred to sterile plastic Petri dishes and exposed to groups of 20 termite workers and two soldiers. Five repetitions per treatment were done. The dishes were kept in a Percival incubator under dark conditions at 27±1° C. and 80% relative humidity. A control containing no antibiotic or fungus inhibitor was prepared and kept under the same conditions as the treatments. Time required to reach 100% mortality was recorded.

As to `O=C(NC(=O)c1c(F)cccc1F)Nc1cc(Cl)c(OC(F)(F)C(F)F)c(Cl)c1` [hexaflumuron], the “Mortality compared with 50 ppm in bait matrix (100% in 10 weeks)” value in the assay with termite is reported as “equivalent”. The same compound returned a Mortality in assay [1] of 100%.

Compound neomycin sulfate yielded a Mortality in assay [2] of 40%.

`CCCSc1ccc2nc(NC(=O)OC)[nH]c2c1` [albendazole] gave a Mortality in assay [2] of 40%.

In the case of `C/C=C/C=C/C(=O)O` [sorbic acid], in assay [2], the Mortality is 33%.

These data come from US6585991B1, “Termite bait matrix” (The United States of America as represented by the …, priority 1999, dated 2003).
